# Test results published in patent US20090247559A1 (Exelixis, Inc., priority 2007, published 2009).
# Key:
# [1] = target: PIM (PIM-1, PIM-2, and/or PIM-3); assay: PIM-1, PIM-2 and PIM-3 inhibition, biochemical chemiluminescence assays (Kinase Glo, IC50 determination); details: Table 1 activity class; PIM refers to PIM-1, PIM-2, and/or PIM-3; read-out: PIM IC50 (Activity B)
# CK2 = CK2 (Homo sapiens, UniProt P68400); assay: CK2 inhibition, biochemical chemiluminescence holoenzyme assay (Kinase Glo, IC50 determination); details: Table 1 activity class; symbol given only if active; read-out: CK2 IC50 (Activity C)
# In short: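 Holoenzyme CK2 assay; compounds pre-incubated with substrate and enzyme, then reacted 150 min at 24-27° C. Remaining ATP measured as luminescence with Kinase Glo, and IC50 derived from the signal.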
# CK2, sequence (P68400 whole entry): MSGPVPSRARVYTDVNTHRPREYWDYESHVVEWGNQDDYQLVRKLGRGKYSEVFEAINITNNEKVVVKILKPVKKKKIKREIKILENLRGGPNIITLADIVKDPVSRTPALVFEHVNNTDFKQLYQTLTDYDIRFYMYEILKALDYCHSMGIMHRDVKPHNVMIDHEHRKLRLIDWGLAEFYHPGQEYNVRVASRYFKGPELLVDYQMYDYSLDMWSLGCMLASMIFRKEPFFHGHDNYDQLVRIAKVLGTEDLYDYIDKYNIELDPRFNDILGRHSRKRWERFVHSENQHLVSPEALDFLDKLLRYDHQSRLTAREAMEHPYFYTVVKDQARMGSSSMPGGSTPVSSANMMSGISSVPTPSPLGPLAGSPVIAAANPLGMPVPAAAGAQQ
# CK2, sequence (P67870 whole entry partner): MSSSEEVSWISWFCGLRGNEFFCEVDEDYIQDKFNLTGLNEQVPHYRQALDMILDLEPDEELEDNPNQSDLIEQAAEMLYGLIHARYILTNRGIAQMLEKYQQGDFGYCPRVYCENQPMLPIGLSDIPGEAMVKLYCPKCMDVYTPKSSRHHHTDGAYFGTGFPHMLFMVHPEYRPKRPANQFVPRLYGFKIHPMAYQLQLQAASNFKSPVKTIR
SMILES,IC50 [1] [µM],IC50 (CK2) [µM]
"O=c1[nH]c(-c2cc(Cl)ccc2Cl)nc2c1oc1ccc(Br)cc12 [Compound 37, 8-Bromo-2-(2,5-dichlorophenyl)[1]benzofuro[3,2-d]pyrimidin-4(3H)-one]",< 10,< 10
"CSc1ccccc1-c1nc2c(oc3ccc(Br)cc32)c(=O)[nH]1 [Compound 88, 8-bromo-2-[2-(methylthio)phenyl][1]benzofuro[3,2-d]pyrimidin-4(3H)-one]",< 10,< 10
"COC(=O)c1ccc(C(=O)Nc2ccc(-c3nc4c(oc5ccc(Br)cc54)c(=O)[nH]3)c(Cl)c2)nc1 [Compound 334, methyl 6-({[4-(8-bromo-4-oxo-3,4-dihydro[1]benzofuro[3,2-d]pyrimidin-2-yl)-3-chlorophenyl]amino}carbonyl)pyridine-3-carboxylate]",< 10,< 10
"CC(C)(C)OC(=O)NC1CCC(c2nc3c(oc4ccc(Br)cc43)c(=O)[nH]2)CC1 (stereo not drawn) [Compound 222, 1,1-Dimethylethyl [4-(8-bromo-4-oxo-3,4-dihydro[1]benzofuro[3,2-d]pyrimidin-2-yl)cyclohexyl]carbamate]",< 10,< 10
"O=c1[nH]c(CN2C[C@H]3CNC[C@H]3C2)nc2c1oc1ccc(Br)cc12 [Compound 229, 8-bromo-2-[(3aR,6aS)-hexahydropyrrolo[3,4-c]pyrrol-2(1H)-ylmethyl][1]benzofuro[3,2-d]pyrimidin-4(3H)-one]",< 10,< 10
"O=c1[nH]c(-c2c(F)cccc2F)nc2c1oc1ccc(Br)cc12 [Compound 70, 8-bromo-2-(2,6-difluorophenyl)[1]benzofuro[3,2-d]pyrimidin-4(3H)-one]",< 10,< 10
"O=c1[nH]c(-c2ccc3c(c2)CCNC3)nc2c1oc1ccc(Br)cc12 [Compound 300, 8-Bromo-2-(1,2,3,4-tetrahydroisoquinolin-6-yl)[1]benzofuro[3,2-d]pyrimidin-4(3H)-one]",< 10,< 10
"O=c1[nH]c(CNCc2ccccc2)nc2c1oc1ccc(Br)cc12 [Compound 239, 8-bromo-2-{[(phenylmethyl)amino]methyl}[1]benzofuro[3,2-d]pyrimidin-4(3H)-one]",< 10,< 10
"CC(=O)Nc1ccc(C(=O)Nc2ccc(Cl)c(-c3nc4c(oc5ccc(Br)cc54)c(=O)[nH]3)c2)cc1 [Compound 356, 4-(acetylamino)-N-[3-(8-bromo-4-oxo-3,4-dihydro[1]benzofuro[3,2-d]pyrimidin-2-yl)-4-chlorophenyl]benzamide]",< 10,< 10
"Cn1nc(OC2CCNCC2)cc1-c1nc2c(oc3ccc(Br)cc32)c(=O)[nH]1 [Compound 351, 8-Bromo-2-[1-methyl-3-(piperidin-4-yloxy)-1H-pyrazol-5-yl][1]benzofuro[3,2-d]pyrimidin-4(3H)-one]",< 10,< 10
"CC(=O)Nc1ccc(-c2nc3c(oc4ccc(Br)cc43)c(=O)[nH]2)cc1 [Compound 80, N-[4-(8-bromo-4-oxo-3,4-dihydro[1]benzofuro[3,2-d]pyrimidin-2-yl)phenyl]acetamide]",< 10,< 10
"O=C(Nc1ccc(Cl)c(-c2nc3c(oc4ccc(Br)cc43)c(=O)[nH]2)c1)c1ccccc1 [Compound 371, N-[3-(8-bromo-4-oxo-3,4-dihydro[1]benzofuro[3,2-d]pyrimidin-2-yl)-4-chlorophenyl]benzamide]",< 10,< 10
"Cc1cc(N)ccc1-c1nc2c(oc3ccc(Br)cc32)c(=O)[nH]1 [Compound 50, 2-(4-amino-2-methylphenyl)-8-bromo[1]benzofuro[3,2-d]pyrimidin-4(3H)-one]",< 10,< 10
"O=C(Nc1ccc(-c2nc3c(oc4ccc(Br)cc43)c(=O)[nH]2)c(Cl)c1)c1ccc(-n2cccn2)nc1 [Compound 396, N-[4-(8-bromo-4-oxo-3,4-dihydro[1]benzofuro[3,2-d]pyrimidin-2-yl)-3-chlorophenyl]-6-(1H-pyrazol-1-yl)pyridine-3-carboxamide]",< 10,< 10
"O=C(Nc1ccc(Cl)c(-c2nc3c(oc4ccc(Br)cc43)c(=O)[nH]2)c1)c1ccncc1 [Compound 314, N-[3-(8-bromo-4-oxo-3,4-dihydro[1]benzofuro[3,2-d]pyrimidin-2-yl)-4-chlorophenyl]pyridine-4-carboxamide]",< 10,< 10
"O=c1[nH]c(CN2CC[C@H](O)C2)nc2c1oc1ccc(NCCc3cccc(C(F)(F)F)c3)cc12 [Compound 473, 2-{[(3S)-3-hydroxypyrrolidin-1-yl]methyl}-8-({2-[3-(trifluoromethyl)phenyl]ethyl}amino)[1]benzofuro[3,2-d]pyrimidin-4(3H)-one]",< 10,< 10
"O=C(Nc1ccc(-c2nc3c(oc4ccc(Br)cc43)c(=O)[nH]2)c(Cl)c1)c1ccc(Br)cn1 [Compound 336, 5-bromo-N-[4-(8-bromo-4-oxo-3,4-dihydro[1]benzofuro[3,2-d]pyrimidin-2-yl)-3-chlorophenyl]pyridine-2-carboxamide]",< 10,< 10
"COc1ccccc1CNCc1nc2c(oc3ccc(Br)cc32)c(=O)[nH]1 [Compound 268, 8-bromo-2-[({[2-(methyloxy)phenyl]methyl}amino)methyl][1]benzofuro[3,2-d]pyrimidin-4(3H)-one]",< 10,< 10

# The remaining lines, values ahead:
IC50 [1] [µM],IC50 (CK2) [µM],SMILES
< 10,< 10,"O=c1[nH]c(CN2CC[C@H](O)C2)nc2c1oc1ccc(C#CCO)cc12 [Compound 454, 8-(3-hydroxyprop-1-yn-1-yl)-2-{[(3S)-3-hydroxypyrrolidin-1-yl]methyl}[1]benzofuro[3,2-d]pyrimidin-4(3H)-one]"
< 10,< 10,"O=c1[nH]c(COCC2CCNC2)nc2c1oc1ccc(Br)cc12 (stereo not drawn) [Compound 288, 8-bromo-2-{[(pyrrolidin-3-ylmethyl)oxy]methyl}[1]benzofuro[3,2-d]pyrimidin-4(3H)-one]"
< 10,< 10,"O=c1[nH]c(CN2CCC(Cc3ccccc3)CC2)nc2c1oc1ccc(Br)cc12 [Compound 253, 8-bromo-2-{[4-(phenylmethyl)piperidin-1-yl]methyl}[1]benzofuro[3,2-d]pyrimidin-4(3H)-one]"
< 10,< 10,"CN(C)CCC(=O)N1CCC(c2nc3c(oc4ccc(Br)cc43)c(=O)[nH]2)CC1 [Compound 206, 8-bromo-2-[1-(N,N-dimethyl-beta-alanyl)piperidin-4-yl][1]benzofuro[3,2-d]pyrimidin-4(3H)-one]"
< 10,< 10,"CCOC(=O)Cc1ccc2oc3c(=O)[nH]c(CN4CC[C@H](O)C4)nc3c2c1 [Compound 491, ethyl (2-{[(3S)-3-hydroxypyrrolidin-1-yl]methyl}-4-oxo-3,4-dihydro[1]benzofuro[3,2-d]pyrimidin-8-yl)acetate]"
< 10,< 10,"O=C1CC(c2nc3c(oc4ccc(Br)cc43)c(=O)[nH]2)CN1C1CCNCC1 (stereo not drawn) [Compound 304, 8-Bromo-2-(5-oxo-1-piperidin-4-ylpyrrolidin-3-yl)[1]benzofuro[3,2-d]pyrimidin-4(3H)-one]"
< 10,< 10,"O=C(C1CCN(Cc2nc3c(oc4ccc(Br)cc43)c(=O)[nH]2)C1)N1CCOCC1 (stereo not drawn) [Compound 267, 8-bromo-2-{[3-(morpholin-4-ylcarbonyl)pyrrolidin-1-yl]methyl}[1]benzofuro[3,2-d]pyrimidin-4(3H)-one]"
< 10,< 10,"O=c1[nH]c(CN2CCN(c3cccnc3)CC2)nc2c1oc1ccc(Br)cc12 [Compound 240, 8-bromo-2-[(4-pyridin-3-ylpiperazin-1-yl)methyl][1]benzofuro[3,2-d]pyrimidin-4(3H)-one]"
< 10,< 10,"O=c1[nH]c(CN2CCN(CCO)CC2)nc2c1oc1ccc(Br)cc12 [Compound 247, 8-bromo-2-{[4-(2-hydroxyethyl)piperazin-1-yl]methyl}[1]benzofuro[3,2-d]pyrimidin-4(3H)-one]"
< 10,< 10,"O=C(O)Cc1nc2c(oc3ccc(Br)cc32)c(=O)[nH]1 [Compound 310, (8-bromo-4-oxo-3,4-dihydro[1]benzofuro[3,2-d]pyrimidin-2-yl)acetic acid]"
< 10,< 10,"O=c1[nH]c(CN2CC[C@H](O)C2)nc2c1oc1ccc(CCCCCCO)cc12 [Compound 457, 8-(6-hydroxyhexyl)-2-{[(3S)-3-hydroxypyrrolidin-1-yl]methyl}[1]benzofuro[3,2-d]pyrimidin-4(3H)-one]"
< 10,< 10,"O=c1[nH]c(CNC2Cc3ccccc3C2)nc2c1oc1ccc(Br)cc12 [Compound 263, 8-bromo-2-[(2,3-dihydro-1H-inden-2-ylamino)methyl][1]benzofuro[3,2-d]pyrimidin-4(3H)-one]"
< 10,< 10,"O=c1[nH]c(CN2CCCC(CO)C2)nc2c1oc1ccc(Br)cc12 (stereo not drawn) [Compound 306, 8-bromo-2-{[3-(hydroxymethyl)piperidin-1-yl]methyl}[1]benzofuro[3,2-d]pyrimidin-4(3H)-one]"
< 10,< 10,"O=C1CC(O)CN1Cc1nc2c(oc3ccc(Br)cc32)c(=O)[nH]1 (stereo not drawn) [Compound 286, 8-bromo-2-[(4-hydroxy-2-oxopyrrolidin-1-yl)methyl][1]benzofuro[3,2-d]pyrimidin-4(3H)-one]"
< 10,< 10,"COc1cccc(CNc2ccc3oc4c(=O)[nH]c(CN5CC[C@H](O)C5)nc4c3c2)c1 [Compound 467, 2-{[(3S)-3-hydroxypyrrolidin-1-yl]methyl}-8-({[3-(methyloxy)phenyl]methyl}amino)[1]benzofuro[3,2-d]pyrimidin-4(3H)-one]"
